# Test results reported in patent US8188059B2, “Compounds and methods for modulating expression of GCGR” (Isis Pharmaceuticals, Inc., priority 2006, dated 2012).
# Strand notation (5' to 3'): a small letter for the sugar, then the base; units joined by * are phosphorothioate-linked, units joined directly phosphodiester-linked; [ ] holds rarer units or linkages, { } end groups; capitals alone tell only the bases. e = 2'-O-(2-methoxyethyl) (MOE); k = constrained ethyl (cEt); [5mC] = 5-methylcytosine; d = 2'-deoxy (DNA)
# Tests used:
# rat SGLT2 mRNA [1] = assay: Rat SGLT2 mRNA levels in kidney, 1-10-1 gapmers at 250 nmol/kg, Sprague-Dawley rats (Example 14, Table 66); type: in vivo; conditions: 250 nmol/kg i.p. twice per week for three weeks; Sprague-Dawley rats; kidney
# Description: The effect of the above 1-10-1gapmers (see Table 64 above) on rat SGLT2 mRNA levels. Data are taken from four experiments in which male Sprague-Dawley rats (170-200 g) were dosed twice per week for three weeks with 250 nmol/kg given by intraperitoneal injection. Rats were sacrificed 48 hours following last administration and evaluated for SGLT2 mRNA levels in kidney. Target levels were determined by RT, real-time PCR as described by other examples herein. PCR results were normalized to an internal ISIS control.
# rat SGLT2 mRNA [2] = assay: Rat SGLT2 mRNA levels in kidney, 1-10-1 and 1-10-2 MOE gapmers, Sprague-Dawley rats (Example 13, Table 63); type: in vivo
# Description: 1-10-1 and 1-10-2 MOE gapmer antisense compounds, provided in Table 62, were designed to target different regions of the mouse or rat SGLT2 RNA. All short antisense compounds in Table 62 are chimeric oligonucleotides (“gapmers”) either 12 or 13 nucleotides in length, composed of a central “gap” segment consisting of ten 2′-deoxynucleotides, which are flanked on the 5′ side by a one-nucleoside “wing” and on the 3′ side by a two or one-nucleotide “wing”. […] All cytidine residues are 5-methylcytidines.
# The short antisense compounds were analyzed for their effect on rat SGLT2 mRNA levels. Data are ranges taken from three experiments in which Male Sprague-Dawley rats (170-200 g) were dosed twice per week for three weeks with 450, 150 or 50 nmol/kg of either a 1-10-1 or 1-10-2 MOE gapmer given by intraperitoneal injection. Rats were sacrificed 48 hours following last administration and evaluated for SGLT2 mRNA levels in kidney. Target levels were determined by RT, real-time PCR as described by other examples herein. PCR results were normalized to an internal ISIS control.
# mouse SGLT2 mRNA [3] = assay: Mouse SGLT2 mRNA levels in kidney, additional 1-10-1 and 2-8-2 MOE gapmers, Balb/c mice (Example 15, Table 68); type: in vivo
# mouse SGLT2 mRNA [4] = assay: Mouse SGLT2 mRNA levels in kidney, 1-10-1 MOE gapmers, Balb/c mice (Example 14, Table 65); type: in vivo
# Description: The short antisense compounds were analyzed for their effect on mouse SGLT2 mRNA levels. Data was taken from three experiments in which Male 6-week old Balb/c mice were dosed twice per week for two weeks with 450, 150, or 50 nmol/kg of one of the above 1-10-1 MOE gapmers given by intraperitoneal injection. Mice were sacrificed 48 hours following last administration and evaluated for SGLT2 mRNA levels in kidney. Target levels were determined by RT, real-time PCR as described by other examples herein. PCR results were normalized to an internal ISIS control.
# PTP1B mRNA [5] = assay: Antisense inhibition of human PTP1B in HepG2 cells at 25 nM (Example 24, Table 85); type: cell-based
# Description: Short antisense compounds targeted to a PTP1B nucleic acid were tested for their effects on PTP1B mRNA in vitro. Cultured HepG2 cells at a density of 10000 cells per well in a 96-well plate were treated with 25 nM of antisense oligonucleotide. After the treatment period, RNA was isolated from the cells and PTP1B mRNA levels were measured by quantitative real-time PCR, as described herein. PTP1B mRNA levels were adjusted according to total RNA content as measured by RIBOGREEN®. Results are presented as percent inhibition (% Ihib) of PTP1B, relative to untreated control cells.
# PTP1B mRNA [6] = assay: Antisense inhibition of human PTP1B in HuVEC cells at 3 nM (Example 23, Table 84); type: cell-based
# Description: Short antisense compounds targeted to a PTP1B nucleic acid were tested for their effects on PTP1B mRNA in vitro. Cultured HuVEC cells at a density of 5000 cells per well in a 96-well plate were treated as described herein with 3 nM of short antisense compound. After the treatment period, RNA was isolated from the cells and PTP1B mRNA levels were measured by quantitative real-time PCR, as described herein. PTP1B mRNA levels were adjusted according to total RNA content as measured by RIBOGREEN®. Results are presented as percent inhibition of PTP1B (% Inhib), relative to untreated control cells.
# ApoB mRNA = ApoB mRNA in liver of Balb/c mice, single i.p. dose 8, 4, 2 or 1 μmol/kg, with ED50 (Example 28, Table 92); type: in vivo, mouse; conditions: ApoB mRNA in liver, single i.p. administration
# Description: The short antisense compounds tested were ISIS 387462 and ISIS 398296. Each dose group consisted of four animals. A 5-10-5 MOE gapmer was used for a control treatment. Mice were sacrificed approximately 48 hours following the final dose. Liver tissue was collected for RNA isolation, and blood was collected for serum chemistry analyses. ApoB mRNA levels were measured by real-time PCR as described herein. ApoB mRNA levels were normalized to RNA levels as determined by RIBOGREEN, and are presented in Table 92 as percent inhibition relative to ApoB mRNA levels in saline-treated control animals.
# At the 8 umol/kg dose, ApoB inhibition by the short antisense compounds was greater than observed with a 5-10-5 MOE gapmer at an equivalent dose. […] Triglycerides were reduced at the highest dose.
substance,measurement,setting,value
ISIS 379699: SGLT2; GGCATGAGCTTC 1-10-1 MOE (antisense eG*dG*d[5mC]*dA*dT*dG*dA*dG*d[5mC]*dT*dT*e[5mC]),% change in SGLT2 expression relative to saline,rat SGLT2 mRNA [1],−75%
same,% change in SGLT2 expression relative to saline,rat SGLT2 mRNA [2]; 50 nmol/kg i.p. twice per week for three weeks,−60%
same,% change in SGLT2 expression relative to saline,rat SGLT2 mRNA [2]; 150 nmol/kg i.p. twice per week for three weeks,−75%
same,% change in SGLT2 expression relative to saline,rat SGLT2 mRNA [2]; 450 nmol/kg i.p. twice per week for three weeks,−83%
same,% change in SGLT2 expression relative to saline,mouse SGLT2 mRNA [3]; 0.02 umol/kg i.p. twice per week for three weeks,−30%
same,% change in SGLT2 expression relative to saline,mouse SGLT2 mRNA [3]; 0.1 umol/kg i.p. twice per week for three weeks,−60%
same,% change in SGLT2 expression relative to saline,mouse SGLT2 mRNA [3]; 0.5 umol/kg i.p. twice per week for three weeks,−75%
same,% change in SGLT2 expression relative to saline,mouse SGLT2 mRNA [4]; 50 nmol/kg i.p. twice per week for two weeks,−42.5%
same,% change in SGLT2 expression relative to saline,mouse SGLT2 mRNA [4]; 150 nmol/kg i.p. twice per week for two weeks,−62.5%
same,% change in SGLT2 expression relative to saline,mouse SGLT2 mRNA [4]; 450 nmol/kg i.p. twice per week for two weeks,−80%
404140 (antisense eG*e[5mC]*dA*d[5mC]*dA*d[5mC]*dA*dG*d[5mC]*dT*dG*dA*eG*eG) [compound 404140],% Inhib (PTP1B mRNA),PTP1B mRNA [5],93%
same,% Inhib (PTP1B mRNA),PTP1B mRNA [6],73%
ISIS 398296: ApoB; GGTACATGGAAGTC 2-10-2 (6′S)-6′-methyl-Methyleneoxy BNA Unmodified Cytosines (antisense kG*kG*dT*dA*dC*dA*dT*dG*dG*dA*dA*dG*kT*kC),ED50,ApoB mRNA,8.7 mg/kg
404138 (antisense e[5mC]*eT*d[5mC]*dA*dG*dT*dG*dT*dG*d[5mC]*dA*d[5mC]*eA*e[5mC]) [compound 404138],% Inhib (PTP1B mRNA),PTP1B mRNA [5],86%
same,% Inhib (PTP1B mRNA),PTP1B mRNA [6],76%
404139 (antisense eG*eT*dG*d[5mC]*dA*d[5mC]*dA*d[5mC]*dA*dG*d[5mC]*dT*eG*eA) [compound 404139],% Inhib (PTP1B mRNA),PTP1B mRNA [5],45%
same,% Inhib (PTP1B mRNA),PTP1B mRNA [6],80%
